Measurements reported in ChEMBL document CHEMBL4007424, “Design and Synthesis of Enantiomerically Pure Decahydroquinoxalines as Potent and Selective κ-Opioid Receptor Agonists with Anti-Inflammatory Activity in Vivo” (J Med Chem, 2017).
Calls of active or inactive are those of the source. The rule behind the calls is not given here.

Legend:
[1] = tested on: Rattus norvegicus; experiment: Toxicity in Wistar Han rat assessed as clinical signs changes at 1 mg/kg, iv after 1 hr; type: organism-based; conditions: in vivo
[2] = Plasma concentration in Wistar Han rat at 1 mg/kg, iv measured 1 hr post compound administration; type: ADME, organism-based
[3] = Ratio of drug level in brain to plasma in Wistar Han rat at 1 mg/kg, iv after 1 hr; type: ADME, organism-based; conditions: read-out: BPR
[4] = Drug level in Wistar Han rat brain at 1 mg/kg, iv measured 1 hr post compound administration; type: ADME, organism-based; conditions: Wistar Han, brain, read-out: Drug uptake
[5] = Plasma concentration in Wistar Han rat at 1 mg/kg, iv measured 0.25 hrs post compound administration; type: ADME, organism-based
[6] = tested on: Rattus norvegicus; experiment: Toxicity in Wistar Han rat assessed as induction of slight lethargy at 5 mg/kg, iv after 0.25 hrs; type: organism-based; conditions: in vivo
[7] = Drug level in Wistar Han rat brain at 5 mg/kg, iv measured 1 hr post compound administration; type: ADME, organism-based; conditions: read-out: Drug uptake
[8] = Plasma concentration in Wistar Han rat at 5 mg/kg, iv measured 0.25 hrs post compound administration; type: ADME, organism-based
[9] = Ratio of drug level in brain to plasma in Wistar Han rat at 5 mg/kg, iv after 1 hr; type: ADME, organism-based; conditions: read-out: BPR
[10] = Plasma concentration in Wistar Han rat at 5 mg/kg, iv measured 1 hr post compound administration; type: ADME, organism-based
[11] = tested on: Rattus norvegicus; experiment: Toxicity in Wistar Han rat assessed as induction of slight lethargy at 5 mg/kg, iv after 1 hr; type: organism-based; conditions: in vivo
[12] = organism: Sus scrofa; experiment: Displacement of [3H]-(+)-MK 801 from PCP binding site of NMDA receptor in pig brain cortex membranes at 10 uM after 120 mins by solid scintillation counting; type: cell membranes
[13] = organism: Cavia porcellus; experiment: Selectivity ratio of Ki for delta-type opioid receptor in guinea pig brain membranes to Ki for kappa-type opioid receptor in guinea pig brain membranes; type: cell membranes
[14] = organism: Rattus norvegicus; experiment: Displacement of [3H]-DTG from sigma 2 receptor in rat liver membranes at 1 uM after 120 mins by scintillation counting; type: cell membranes; conditions: Membrane
[15] = biological target: T1, Kappa-type opioid receptor (Homo sapiens, UniProt P41145); experiment: Agonist activity at recombinant human kappa-type opioid receptor expressed in HEK293 cells at 1 uM after 30 mins by [35S]GTPgammaS binding assay; type: functional, cell-based
T1 sequence (P41145 whole entry): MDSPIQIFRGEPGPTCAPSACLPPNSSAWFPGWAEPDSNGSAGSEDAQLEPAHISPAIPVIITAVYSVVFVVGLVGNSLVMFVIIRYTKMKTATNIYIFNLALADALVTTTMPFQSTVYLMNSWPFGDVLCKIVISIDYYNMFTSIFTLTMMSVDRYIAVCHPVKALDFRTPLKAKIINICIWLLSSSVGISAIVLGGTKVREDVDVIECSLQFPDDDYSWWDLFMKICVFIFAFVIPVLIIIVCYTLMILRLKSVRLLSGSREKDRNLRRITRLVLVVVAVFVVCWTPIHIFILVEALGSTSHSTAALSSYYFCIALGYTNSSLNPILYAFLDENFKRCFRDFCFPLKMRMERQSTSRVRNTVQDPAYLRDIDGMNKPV

[16] = biological target: Sigma non-opioid intracellular receptor 1 (Cavia porcellus) (UniProt Q60492); experiment: Displacement of [3H]-(+)-pentazocine from sigma1-type […] receptor in guinea pig cortex membranes at 1 uM after 120 mins by solid scintillation counting; type: cell membranes
Chain of Sigma non-opioid intracellular receptor 1 (Cavia porcellus) (Q60492 whole entry): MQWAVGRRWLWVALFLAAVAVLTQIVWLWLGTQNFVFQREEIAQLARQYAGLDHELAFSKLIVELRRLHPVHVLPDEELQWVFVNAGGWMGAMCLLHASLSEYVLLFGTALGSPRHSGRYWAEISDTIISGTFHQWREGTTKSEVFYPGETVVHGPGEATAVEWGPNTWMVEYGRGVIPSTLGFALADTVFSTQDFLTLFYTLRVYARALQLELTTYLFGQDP

[17] = tested on: Mus musculus; experiment: Antiinflammatory activity in arachidonic acid-induced ear dermatitis ICR mouse model assessed as reduction in ear swelling at 0.1 mg administered twice tropically 30 mins prior and 15 mins after arachidonic acid addition measured 60 mins post arachidonic acid challenge relative to control; type: functional
[18] = Displacement of [3H]DPDPE from delta-type opioid receptor in guinea pig brain membranes after 120 mins by solid scintillation counting; type: cell membranes, Cavia porcellus, Membrane
[19] = tested on: Mus musculus; experiment: Antiinflammatory activity in arachidonic acid-induced ear dermatitis ICR mouse model assessed as reduction in ear swelling at 3 mg administered twice tropically 30 mins prior and 15 mins after arachidonic acid addition measured 60 mins post arachidonic acid challenge relative to control; type: functional
[20] = biological target: Kappa-type opioid receptor (Cavia porcellus, UniProt P41144); experiment: Displacement of [3H]U-69,593 from kappa-type opioid receptor in guinea pig brain membranes after 120 mins by solid scintillation counting; type: cell membranes, Membrane
Chain of Kappa-type opioid receptor (Cavia porcellus, UniProt P41144) (P41144 whole entry): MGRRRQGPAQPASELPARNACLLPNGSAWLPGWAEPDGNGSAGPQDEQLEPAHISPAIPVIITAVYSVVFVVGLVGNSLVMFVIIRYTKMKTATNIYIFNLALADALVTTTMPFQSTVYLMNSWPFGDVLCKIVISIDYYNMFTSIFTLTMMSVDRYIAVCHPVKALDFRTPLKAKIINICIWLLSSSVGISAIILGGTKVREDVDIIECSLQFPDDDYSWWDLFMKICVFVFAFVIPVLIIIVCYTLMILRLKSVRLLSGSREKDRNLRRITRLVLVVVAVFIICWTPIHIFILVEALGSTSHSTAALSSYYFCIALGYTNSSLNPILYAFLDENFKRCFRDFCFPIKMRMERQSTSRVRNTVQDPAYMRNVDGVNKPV

[21] = tested on: Mus musculus; experiment: Antiinflammatory activity in arachidonic acid-induced ear dermatitis ICR mouse model assessed as reduction in ear swelling at 1 mg administered twice tropically 30 mins prior and 15 mins after arachidonic acid addition measured 60 mins post arachidonic acid challenge relative to control; type: functional
[22] = tested on: Mus musculus; experiment: CNS toxicity in sc dosed mouse model of acetic acid-induced writhing assessed as lowest dose causing side effects; type: organism-based; conditions: in vivo
[23] = tested on: Mus musculus; experiment: Antiinflammatory activity in arachidonic acid-induced ear dermatitis ICR mouse model assessed as reduction in ear swelling at 0.3 mg administered twice tropically 30 mins prior and 15 mins after arachidonic acid addition measured 60 mins post arachidonic acid challenge relative to control; type: functional
[24] = tested on: Mus musculus; experiment: Antinociceptive activity in sc dosed mouse model of acetic acid-induced writhing; type: functional
[25] = biological target: T1, Kappa-type opioid receptor; experiment: Agonist activity at recombinant human kappa-type opioid receptor expressed in HEK293 cells after 30 mins by [35S]GTPgammaS binding assay; type: functional, cell-based
[26] = biological target: Mu-type opioid receptor (Cavia porcellus, UniProt P97266); experiment: Displacement of [3H]DAMGO from mu-type opioid receptor in guinea pig brain membranes after 120 mins by solid scintillation counting; type: cell membranes, Membrane
Chain of Mu-type opioid receptor (P97266 whole entry): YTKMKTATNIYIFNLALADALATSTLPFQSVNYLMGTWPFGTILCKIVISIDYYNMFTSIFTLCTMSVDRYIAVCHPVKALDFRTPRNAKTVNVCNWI

[27] = biological target: Mu-type opioid receptor (Cavia porcellus) (UniProt P97266); experiment: Displacement of [3H]DAMGO from mu-type opioid receptor in guinea pig brain membranes at 1 uM after 120 mins by solid scintillation counting; type: cell membranes; conditions: Membrane
Chain of Mu-type opioid receptor (Cavia porcellus) (P97266 whole entry): as above

[28] = tested on: Mus musculus; experiment: (§1) Antiinflammatory activity in oxazolone-induced delayed type hypersensitivity BALB/c mouse model assessed as reduction in ear weight at 0.1 to 2.5 mg applied topically on ear administered 3 hrs prior to oxazolone challenge on day 7 to 12 post sensitization followed by re-administration of compound on day 13 to 18 without oxazolone challenge measured on day 19; type: functional
[29] = tested on: Mus musculus; experiment: Antiinflammatory activity in tropically administered oxazolone-induced delayed type hypersensitivity BALB/c mouse model assessed as effect on ear weight administered 3 hrs prior to oxazolone challenge on day 7 to 12 post sensitization followed by re-administration of compound on day 13 to 18 without oxazolone challenge measured on day 19; type: functional
[30] = tested on: Mus musculus; experiment: Antiinflammatory activity in oxazolone-induced delayed type hypersensitivity BALB/c mouse model assessed as effect on histology changes at 0.1 to 2.5 mg applied topically on ear administered 3 hrs prior to oxazolone challenge on day 7 to 12 post sensitization followed by re-administration of compound on day 13 to 18 without oxazolone challenge measured daily prior to treatment from day 7 to 19 by H and E staining based assay; type: functional
[31] = tested on: Mus musculus; experiment: as §1, with “thickness” for “weight”, “0.5” for “0.1 to 2.5”; type: functional

In the case of `COC(=O)N1CCN(C(=O)Cc2ccc(Cl)c(Cl)c2)[C@@H]2[C@@H](N3CC[C@@H](O)C3)CCC[C@@H]21.Cl`, the Activity [1] is reported as “Non-Toxic”, the concentration at 1 h [2] is reported as 115 ng/mL and the Kp at 1 h [3] is reported as 0.07. For the same compound, the concentration at 1 h [4] was 7.9 ng/g and the concentration at 0.25 h [5] was 454 ng/mL.

In the case of `CS(=O)(=O)N1CCN(C(=O)Cc2ccc(Cl)c(Cl)c2)[C@@H]2[C@@H](N3CCCC3)CCC[C@@H]21.Cl`, the Activity [1] is reported as “Non-Toxic”, the concentration at 1 h [2] is reported as 124 ng/mL and the Kp at 1 h [3] is reported as 0.02. The concentration at 1 h [4] was 2.9 ng/g and the concentration at 0.25 h [5] was 246 ng/mL.

For `CN(C)S(=O)(=O)N1CCN(C(=O)Cc2ccc(Cl)c(Cl)c2)[C@@H]2[C@@H](N3CCCC3)CCC[C@@H]21.Cl`, the Activity [6] was “Toxic”, the concentration at 1 h [7] was 541 ng/g and the concentration at 0.25 h [8] was 1080 ng/mL. The Kp at 1 h [9] was 0.97, the concentration at 1 h [10] was 560 ng/mL and the Activity [11] was “Toxic”.

`COC(=O)N1CCN(C(=O)Cc2ccc(F)c(Cl)c2)[C@@H]2[C@@H](N3CC[C@H](O)C3)CCC[C@@H]21` gave an inhibition [12] of 13%, a Ratio Ki [13] of 80 and an inhibition [14] of 35%. For the same compound, the Activity [15] was 110% and the inhibition [16] was 0%.

For `COC(=O)N1CCN(C(=O)Cc2ccc(Cl)c(Cl)c2)[C@@H]2[C@@H](N3CC[C@@H](O)C3)CCC[C@@H]21`, the “inhibition (INH)” value [17] was 25%, the Ki [18] was 198 nM and the “inhibition (INH)” value [19] was 60%. For the same compound, the Ki [20] was 1.3 nM, the “inhibition (INH)” value [21] was 66% and the MTC [22] was 16.2 mg/kg. For the same compound, the “inhibition (INH)” value [23] was 40%, the ED50 [24] was 9.6 mg/kg and the EC50 [25] was 4.7 nM.

With `COC(=O)N1CCN(C(=O)Cc2ccc(Cl)c(Cl)c2)[C@@H]2[C@@H](N3CC[C@H](O)C3)CCC[C@@H]21` the “inhibition (INH)” value [17] was 23%, the Ki [18] was 101 nM and the “inhibition (INH)” value [19] was 66%. The Ki [26] was 184 nM, the Ki [20] was 0.45 nM and the “inhibition (INH)” value [21] was 41%. For the same compound, the MTC [22] was 5.4 mg/kg, the “inhibition (INH)” value [23] was 25% and the ED50 [24] was 2.2 mg/kg. It also gave an EC50 [25] of 0.9 nM.

`COC(=O)N1CCN(C(=O)Cc2ccc(Cl)c(Cl)c2)[C@@H]2[C@@H](N(C)C)CCC[C@@H]21` gave an inhibition [12] of 0%, a Ratio Ki [13] of over 50 and an inhibition [27] of 0%. It also gave an inhibition [14] of 0%, an Activity [15] of 96% and an inhibition [16] of 4%.

For `COC(=O)N1CCN(C(=O)Cc2ccc(Cl)cc2)[C@@H]2[C@@H](N3CC[C@H](O)C3)CCC[C@@H]21`, the Activity [28] was “Dose-dependent effect”, the inhibition [12] was 7% and the Activity [29] was “Dose-dependent effect”. The Activity [30] was “Active”, the inhibition [14] was 11% and the Activity [15] was 103%. It also gave an inhibition [16] of 21%.

With `COC(=O)N1CCN(C(=O)Cc2cccc(Cl)c2)[C@@H]2[C@@H](N3CC[C@H](O)C3)CCC[C@@H]21` the Activity [31] was “Active”, the inhibition [12] was 4% and the inhibition [14] was 0%. It also gave an Activity [15] of 102% and an inhibition [16] of 0%.

With `CC(C)NC(=O)N1CCN(C(=O)Cc2ccc(Cl)c(Cl)c2)[C@@H]2[C@@H](N3CCCC3)CCC[C@@H]21.Cl` the Activity [1] was “Non-Toxic”, the concentration at 1 h [2] was 130 ng/mL and the Kp at 1 h [3] was 0.02. The concentration at 1 h [4] was 2.9 ng/g and the concentration at 0.25 h [5] was 290 ng/mL.
